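These data come from cells grown in 96-well plates and exposed to compound for 48 hours at five concentrations. The concentration for 50% growth inhibition is given as GI50. The concentration for full growth arrest is given as TGI.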
Columns and labels:
Assay in all cases: DTP human tumour cell line panel, 48 h
SNB-75 CNS = system: SNB-75 CNS
OVCAR-4 ovarian = system: OVCAR-4 ovarian
SK-MEL-2 melanoma = system: SK-MEL-2 melanoma
RPMI-8226 leukemia = system: RPMI-8226 leukemia
RXF 393 renal = system: RXF 393 renal
MDA-MB-231 breast = system: MDA-MB-231 breast
HCT-15 colon = system: HCT-15 colon
MALME-3M melanoma = system: MALME-3M melanoma
NCI-H522 lung = system: NCI-H522 lung
K-562 leukemia = system: K-562 leukemia
MDA-MB-435 = system: MDA-MB-435
SK-OV-3 ovarian = system: SK-OV-3 ovarian
SW-620 colon = system: SW-620 colon
M14 melanoma = system: M14 melanoma
IGROV1 ovarian = system: IGROV1 ovarian
EKVX NSCLC = system: EKVX NSCLC
SN12C renal = system: SN12C renal
DU-145 prostate = system: DU-145 prostate
MOLT-4 leukemia = system: MOLT-4 leukemia
SK-MEL-5 melanoma = system: SK-MEL-5 melanoma
CAKI-1 renal = system: CAKI-1 renal
LOX IMVI melanoma = system: LOX IMVI melanoma
PC-3 prostate = system: PC-3 prostate
A498 renal = system: A498 renal
SF-539 CNS = system: SF-539 CNS
UACC-257 melanoma = system: UACC-257 melanoma
CCRF-CEM leukemia = system: CCRF-CEM leukemia
ACHN renal = system: ACHN renal
COLO 205 colon = system: COLO 205 colon
HOP-62 NSCLC = system: HOP-62 NSCLC
HL-60(TB) leukemia = system: HL-60(TB) leukemia
T-47D breast = system: T-47D breast
A549 NSCLC = system: A549 NSCLC
SNB-19 CNS = system: SNB-19 CNS
HCT-116 colon = system: HCT-116 colon
OVCAR-3 ovarian = system: OVCAR-3 ovarian
NCI-H226 lung = system: NCI-H226 lung
HT29 colon = system: HT29 colon
HOP-92 NSCLC = system: HOP-92 NSCLC
UACC-62 melanoma = system: UACC-62 melanoma
KM12 colon = system: KM12 colon
OVCAR-8 ovarian = system: OVCAR-8 ovarian
HS 578T breast = system: HS 578T breast
NCI-H23 lung = system: NCI-H23 lung
TK-10 renal = system: TK-10 renal
NCI/ADR-RES ovarian = system: NCI/ADR-RES ovarian
BT-549 breast = system: BT-549 breast
SR leukemia = system: SR leukemia
UO-31 renal = system: UO-31 renal
SF-295 CNS = system: SF-295 CNS
SF-268 CNS = system: SF-268 CNS
OVCAR-5 ovarian = system: OVCAR-5 ovarian
SK-MEL-28 melanoma = system: SK-MEL-28 melanoma
U251 CNS = system: U251 CNS
MCF7 breast = system: MCF7 breast
786-0 renal = system: 786-0 renal
NCI-H460 lung = system: NCI-H460 lung
HCC-2998 colon = system: HCC-2998 colon

Cc1ccc(-c2c(C#N)[n+](=O)c3cc(Cl)c(Cl)cc3n2[O-])cc1
GI50 (SNB-75 CNS): 18.2 µM
TGI (SNB-75 CNS): 38.2 µM
GI50 (OVCAR-4 ovarian): 10.8 µM
TGI (OVCAR-4 ovarian): 30.4 µM
GI50 (SK-MEL-2 melanoma): 17.3 µM
TGI (SK-MEL-2 melanoma): 34.7 µM
GI50 (RPMI-8226 leukemia): 4.76 µM
TGI (RPMI-8226 leukemia): 16.7 µM
GI50 (RXF 393 renal): 5.53 µM
TGI (RXF 393 renal): 12.6 µM
GI50 (MDA-MB-231 breast): 3.49 µM
GI50 (HCT-15 colon): 29.9 µM
TGI (HCT-15 colon): > 100 µM
GI50 (MALME-3M melanoma): 7 µM
TGI (MALME-3M melanoma): 25.2 µM
GI50 (NCI-H522 lung): 12.9 µM
TGI (NCI-H522 lung): > 67.4 µM
GI50 (K-562 leukemia): 2.56 µM
GI50 (MDA-MB-435): 17.2 µM
TGI (MDA-MB-435): 35.2 µM
GI50 (SK-OV-3 ovarian): 21.6 µM
TGI (SK-OV-3 ovarian): 47.1 µM
GI50 (SW-620 colon): 5.08 µM
TGI (SW-620 colon): 11.8 µM
GI50 (M14 melanoma): 4.95 µM
TGI (M14 melanoma): 19.2 µM
GI50 (IGROV1 ovarian): 3.41 µM
TGI (IGROV1 ovarian): > 36.9 µM
GI50 (EKVX NSCLC): 21.5 µM
TGI (EKVX NSCLC): 45.4 µM
GI50 (SN12C renal): 30.5 µM
TGI (SN12C renal): 85.6 µM
GI50 (DU-145 prostate): 17 µM
TGI (DU-145 prostate): 33.2 µM
GI50 (MOLT-4 leukemia): 1.55 µM
TGI (MOLT-4 leukemia): 3.41 µM
GI50 (SK-MEL-5 melanoma): 13.9 µM
TGI (SK-MEL-5 melanoma): 27.2 µM
GI50 (CAKI-1 renal): 16.9 µM
TGI (CAKI-1 renal): 32.2 µM
GI50 (LOX IMVI melanoma): 27.1 µM
TGI (LOX IMVI melanoma): > 100 µM
GI50 (PC-3 prostate): 6.88 µM
TGI (PC-3 prostate): 18.5 µM
GI50 (A498 renal): 16.3 µM
TGI (A498 renal): 30.4 µM
GI50 (SF-539 CNS): 16.1 µM
TGI (SF-539 CNS): 35 µM
GI50 (UACC-257 melanoma): 4.89 µM
TGI (UACC-257 melanoma): 9.77 µM
GI50 (CCRF-CEM leukemia): 2.95 µM
TGI (CCRF-CEM leukemia): 15.6 µM
GI50 (ACHN renal): 5.27 µM
GI50 (COLO 205 colon): 8.97 µM
TGI (COLO 205 colon): 24.2 µM
GI50 (HOP-62 NSCLC): 10.3 µM
TGI (HOP-62 NSCLC): 26.7 µM
GI50 (HL-60(TB) leukemia): 2.5 µM
TGI (HL-60(TB) leukemia): > 100 µM
GI50 (T-47D breast): 5.98 µM
TGI (T-47D breast): 16.3 µM
GI50 (A549 NSCLC): 8.32 µM
TGI (A549 NSCLC): 23.3 µM
GI50 (SNB-19 CNS): 14.4 µM
TGI (SNB-19 CNS): > 47.1 µM
GI50 (HCT-116 colon): 2.16 µM
GI50 (OVCAR-3 ovarian): 8.29 µM
TGI (OVCAR-3 ovarian): 23.5 µM
GI50 (NCI-H226 lung): 40.4 µM
TGI (NCI-H226 lung): > 100 µM
GI50 (HT29 colon): 2.94 µM
TGI (HT29 colon): 11 µM
GI50 (HOP-92 NSCLC): 6 µM
TGI (HOP-92 NSCLC): 13.7 µM
GI50 (UACC-62 melanoma): > 47 µM
TGI (UACC-62 melanoma): > 69.4 µM
GI50 (KM12 colon): 6.05 µM
TGI (KM12 colon): 26.6 µM
GI50 (OVCAR-8 ovarian): 7.39 µM
TGI (OVCAR-8 ovarian): 23.1 µM
GI50 (HS 578T breast): 10.3 µM
TGI (HS 578T breast): 48.9 µM
GI50 (NCI-H23 lung): 5.46 µM
TGI (NCI-H23 lung): 13.1 µM
GI50 (TK-10 renal): 16.7 µM
TGI (TK-10 renal): 32.9 µM
GI50 (NCI/ADR-RES ovarian): 5.86 µM
TGI (NCI/ADR-RES ovarian): 17.3 µM
GI50 (BT-549 breast): 16.1 µM
TGI (BT-549 breast): 35.5 µM
GI50 (SR leukemia): 2.13 µM
TGI (SR leukemia): > 100 µM
GI50 (UO-31 renal): 13.6 µM
TGI (UO-31 renal): 35.7 µM
GI50 (SF-295 CNS): 19.4 µM
TGI (SF-295 CNS): 37.9 µM
GI50 (SF-268 CNS): 5.16 µM
TGI (SF-268 CNS): 18 µM
GI50 (OVCAR-5 ovarian): 6.02 µM
TGI (OVCAR-5 ovarian): 14.7 µM
GI50 (SK-MEL-28 melanoma): 3.98 µM
TGI (SK-MEL-28 melanoma): 13.5 µM
GI50 (U251 CNS): 34.6 µM
TGI (U251 CNS): > 100 µM
GI50 (MCF7 breast): 13.6 µM
TGI (MCF7 breast): 34.9 µM
GI50 (786-0 renal): 13.4 µM
TGI (786-0 renal): 30.1 µM
GI50 (NCI-H460 lung): 20 µM
TGI (NCI-H460 lung): 41.3 µM
GI50 (HCC-2998 colon): 4.76 µM
TGI (HCC-2998 colon): 11.6 µM

— PubChem BioAssay (NCI)
